{"source": "patent US10195155B2", "about": "“Drug carrier for tumor-specific targeted drug delivery and use thereof” (Institute of Biophysics, Chinese Academy of Sciences, priority 2014, dated 2019)", "key": {"[1]": {"assay": "Maximal tolerated dosage in healthy mice, single administration", "details": "HFn-Dox by Dox equivalent", "description": "In the therapy of a cancer patient, the dosage of administration and the number of administration were very important. However, bound by toxic side effects of chemotherapeutic drugs, the therapy of cancer usually became administration in a small amount at a high frequency."}, "HT-29 implanted tumor": {"tested_on": "HT-29 implanted tumor", "assay": "Anti-tumor pharmacodynamics in nude mice bearing HT-29 implanted tumor", "details": "single tail vein dose", "protocol": "40 female BALB/c nude mice bearing HT-29 implanted tumor were randomly divided into five groups. When the volume of the implanted tumor was up to about 100 square millimeters, drugs were injected to all of tumor-bearing mice through the tail vein. […] Since the maximal tolerated dosage of mice to free Doxorubicin was 5 mg/kg mouse body weight, the administration dosage of the free Doxorubicin group was 5 mg/kg mouse body weight. […] Measurements of body weights and tumors of mice were three times per week."}}, "data": [{"smiles": "COc1cccc2c1C(=O)c1c(O)c3c(c(O)c1C2=O)C[C@@](O)(C(=O)CO)C[C@@H]3O[C@H]1C[C@H](N)[C@H](O)[C@H](C)O1", "note": "[free Doxorubicin, Doxorubicin]", "values": [{"measurement": "maximal tolerated dosage", "setting": "[1]", "result": 5, "unit": "mg/kg"}, {"measurement": "average survival time of tumor-bearing mice", "setting": "HT-29 implanted tumor; free Dox 5 mg/kg, Doxil 20 mg/kg", "result": 18, "unit": "days"}, {"measurement": "tumor growth inhibition", "setting": "HT-29 implanted tumor; free Doxorubicin 5 mg/kg, HFn-Dox and Doxil 20 mg/kg, 40-day window", "result": "almost no inhibitory effect"}]}]}
